# Assay results published in patent EP0636146B1, “TACHYKININ ANTAGONIST TRICYCLIC COMPOUNDS, PREPARATION OF SAME AND PHARMACEUTICAL COMPOSITIONS CONTAINING SUCH COMPOUNDS” (A. MENARINI INDUSTRIE FARMACEUTICHE RIUNITE S.R.L., priority 1992, dated 1997).
# Key:
# [1] = system: neuroquinine A receptor (receptor NK-2); assay: inhibition of NKA-induced contraction of isolated rabbit pulmonary artery; type: cell-based; details: NKA 3 nM
# Protocol: The capacity of the products described in the present invention to interact with the neuroquinine A receptor as agonists or antagonists was assessed using a preparation characterized by the fact that the biological response produced by tachyquinines and correlated peptides was exclusively determined by the neuroquinine A receptor (receptor NK-2). The said preparation consisted of isolated rabbit pulmonary artery affected by a dose-dependent contraction brought about by tachyquinines (Rovero et al., Neuropeptides, 13, 263-270, 1989). The determination of the peptide activity in the test preparation was based on the use of an NKA concentration (3 nM) causing a response equal to 45% of max. response. The peptides considered herein were added to the preparation in growing concentrations. Their activity was assessed as inhibition of response to NKA.
# [2] = system: P substance receptor (receptor NK-1); assay: inhibition of SP methyl ester-induced contraction of isolated guinea pig ileum; type: cell-based; design: dose or concentration left out as unconfirmed; details: SP methyl ester 10 nm
# Protocol: The capacity of the products described herein to interact with the P substance receptor (receptor NK-1) was assessed through an in vitro test, where the biological response produced by tachyquinines and correlated peptides was exclusively determined by the P substance receptor. The test preparation consisted of isolated guinea pig ileum affected by a dose-dependent contraction brought about by tachyquinines (Lee et al., Schmied. Arch. Pharmacol., 318, 281-287, 1982). The determination of the activity of the products as per the present invention in the test preparation was based on the use of an SP methyl ester concentration (10 nm) causing a response equal to 45% of max. response (S. Dion et al., Life Sci., 41, 2269-2278, 1987). The products considered herein were added to the preparation in growing concentrations. Their activity was assessed as inhibition of response to SP with satisfactory results.
substance,measurement,setting,value
cyclo(MDWFL) [compound 1],inhibition of response to neuroquinine A,[1],100%
same,inhibition of response to SP methyl ester,[2],100%
